According to US9399656B2, “Compound, method for producing same, and use of same” (Microbial Chemistry Research Foundation, priority 2011, dated 2016):

Experiments:
Assay type in all cases: cell-based, human
[1] = system: PGE2 production in SW982 cell; assay: PGE2 production inhibitory action in bradykinin-stimulated SW982 cells (HTRF kit); settings: bradykinin 1 nM, 30 min, test substance 2 to 10,000 ng/mL, FIG. 5
Procedure: The compound represented by the Structural Formula (A) was evaluated for a PGE2 production inhibitory action as follows.
A SW982 cell which is a human […] cell line (purchased from ATCC (American Type Culture Collection)) was suspended into DMEM/F12 (Dulbecco's Modified Eagle Medium: Nutrient Mixture F-12, manufactured by Thermo Fisher Scientific) containing 10% fetal bovine serum (manufactured by Nichirei Corporation), followed by inoculating into a 96-well culture plate at 1×10^4 cells/well and incubating overnight.
After the incubation overnight, the medium in the 96-well culture plate containing the SW982 cells was replaced with HEPES-HANKS buffer (manufactured by NISSUI PHARMACEUTICAL CO., LTD.). […] After incubating for 30 min, a culture supernatant was collected, followed by measuring a PGE2 concentration A in the culture supernatant using a kit based on a HTRF (Homogeneous Time-Resolved Fluorescence) method (62P2APEB, manufactured by Cisbio Bioassays).
As a negative control, a PGE2 concentration B was measured in the same manner as in the measurement of the PGE2 concentration in the system containing the test substance, except that neither the test substance nor bradykinin (inflammatory stimulating agent) was added. […]

[2] = system: PGI2 production in SW982 cell; assay: PGI2 production inhibitory action (6-keto-PGF1α enzyme immunoassay) in bradykinin-stimulated SW982 cells; settings: bradykinin 1 nM, 30 min, test substance 14 to 10,000 ng/mL, FIG. 5
Procedure: The compound represented by the Structural Formula (A) was evaluated for a PGI2 production inhibitory action as follows. PGI2 is metabolized to 6-keto-PGF1α (6-keto-prostaglandin F1α) which is a stabilized metabolite. Therefore, a concentration of PGI2 produced can be determined by measuring a concentration of 6-keto-PGF1α.
A SW982 cell which is human […] cell line (purchased from ATCC) was suspended into DMEM/F12 (manufactured by Thermo Fisher Scientific) containing 10% fetal bovine serum (manufactured by Biowest), followed by inoculating into a 96-well culture plate at 1×10^4 cells/well and incubating overnight. […]
As a negative control, a 6-keto-PGF1α concentration E was measured in the same manner as in the measurement of the 6-keto-PGF1α concentration in the system containing the test substance, except that neither the test substance nor bradykinin (inflammatory stimulating agent) was added.
As a positive control, a 6-keto-PGF1α concentration F was measured in the same manner as in the measurement of the 6-keto-PGF1α concentration in the system containing the test substance, except that the test substance was not added.
Based on the measurement result of 6-keto-PGF1α concentration in the each well, a 6-keto-PGF1α production rate was calculated according to the following Expression (2): 6-keto-PGF1α production rate (%)=(D−E)/(F−E)×100 Expression (2) […]

SW982 cell = assay: Cytotoxicity test (Cell Counting Kit-8, cell proliferation rate); settings: SW982 cells, 48 hours
Procedure: The compound represented by the Structural Formula (A) was evaluated for cytotoxicity as follows.
A SW982 cell (purchased from ATCC) at 2×10^3 cells/well was prepared with DMEM/F12 medium (manufactured by Thermo Fisher Scientific) containing 10% fetal bovine serum (manufactured by Nichirei Corporation), followed by inoculating into a 96-well culture plate so that each well contained 0.1 mL. At the same time, the test substance produced in Production Example 1 (the compound represented by the Structural Formula (A)) was added to each well at a concentration described in the following Table 1, followed by incubating for 48 hours under a condition of 37° C. and 5% CO2. After the incubation for 48 hours, 10 μL of a cytometric kit (CELL COUNTING KIT-8, manufactured by DOJINDO LABORATORIES) was added to the each well, followed by incubating for 2 hours. Then, an absorbance at 450 nm G was measured.
The cytometric kit allows living cells to develop a color. Accordingly, the higher absorbance at 450 nm is, the larger the number of living cells is, that is, cell proliferation is not affected. Therefore, based on the measurement result of absorbance in the each well, a cell proliferation rate was calculated according to the following Expression (3) to thereby evaluate an influence upon the cell proliferation: Cell proliferation rate (%)=G/H×100 Expression (3)
G denotes an absorbance at 450 nm in the system containing the test substance, and
H denotes an absorbance at 450 nm in the system containing no test substance (i.e., at a concentration of 0 nM in the following Table 1).

COC1=C(C)C(=O)c2ccc(OC3OC(C)C(O)C(O)C3O)c(NNC(C)=O)c2C1=O (stereo not shown) [Structural Formula (A)]
PGE2 production rate [1]: decreased | 6-keto-PGF1α production rate [2]: decreased | Cell proliferation rate (%) (SW982 cell; concentration 111 nM): 100% | Cell proliferation rate (%) (SW982 cell; concentration 333 nM): 103% | Cell proliferation rate (%) (SW982 cell; concentration 10,000 nM): 111% | Cell proliferation rate (%) (SW982 cell; concentration 30,000 nM): 95% | Effect on cell proliferation of the SW982 cell (SW982 cell; up to 30,000 nM (Table 1)): not to affect cell proliferation
